Data as given in patent US20230143751A1, “Aromatic Compound And Use Thereof In Preparing Antineoplastic Drugs” (Shanghai Zheye Biotechnology Co. Ltd., priority 2020, published 2023).

Assays:
NCI-H358 = experiment: Cell proliferation inhibitory activity on NCI-H358, 3D model test (agarose colony formation); assay type: cell-based
Procedure: 100 μl of agarose gel with a high concentration was spread in a 96-well plate as the bottom agarose gel layer. Agarose with a low concentration and growth medium containing cells were mixed and then spread on the bottom agar layer, cooled and solidified, then incubated overnight at 37° C. Mother solutions were prepared from the test compounds by using DMSO, and then subjected to gradient elution with RPMI 1640 growth medium. The solutions of test compounds with different concentrations after gradient elution were added to the 96-well plate comprising an upper layer of agar gel-cells. Solvent control well was set up and the plate was incubated in a CO2 incubator. The drug-containing medium was changed during the incubation period and the cell growth situation was observed. After the incubation, the cells were stained with NBT and the number of cell colony formation was counted, and the IC50 values of the compounds inhibiting cell proliferation were derived.

[1] = system: MIA PaCa-2-derived xenograft tumor; experiment: Pharmacodynamics test of MIA PaCa-2-derived xenograft tumor model in nude mice (test 6); assay type: in vivo
Procedure: Animal species and number: Balb/c Nude; 6 animals per group.
Test samples: Compound 3-2, Compound 3-6, Compound 3-20, Compound 3-12M.
Test groups: blank solvent control group; Compound 3-2 (10 mg/kg, QD×15 days), Compound 3-6 (10 mg/kg, QD×15 days), Compound 3-20 (10 mg/kg, QD×15 days), Compound 3-12M (10 mg/kg, QD×15 days).
Animal model establishment: MIA paca-2 tumor cells in logarithmic growth phase were cultured in vitro and collected, and inoculated subcutaneously into the right back of nude mice at a quantity of 5×10^6 cells/each. When the tumor volume reached 150-300 mm^3, the tumor-bearing nude mice were randomly grouped. Subsequently, the animals in each group were administered, and the day of the first administration was defined as day 1 of the test.
Administration route and frequency: oral administration by gavage; once a day.
General state observation: observation time and frequency: once a day; observation indexes or contents: including but not limited to administration location, appearance and signs, general behavioral activities, mental status, death and other abnormal performance of the animals. The animals were euthanized at the end of the test.
Tumor volume calculation: V=½×long diameter×short diameter^2 (mm^3). Tumor growth inhibition rate TGI (%) is used to evaluate the tumor inhibition efficacy of the compounds. TGI (%)=[1−(mean tumor volume in treatment group at the end of administration−mean tumor volume in treatment group at the beginning of administration)/(mean tumor volume in control group at the end of administration−mean tumor volume in control group at the beginning of administration)]×100%.

[2] = Acute toxicity test, single oral dose in SD rats; assay type: in vivo; conditions: SD rats, single oral gavage, 500, 1000, 2000 mg/kg
Procedure: Test samples: Compound 3-2, and Compound 3-6.
Animal species and number: SD rat; 6 animals per group (half male and half female).
Administration mode: oral administration by gavage.
Animal grouping and administration dose: vehicle blank group, Compound 3-2 group (500 mg/kg, 1000 mg/kg, 2000 mg/kg), Compound 3-6 group (500 mg/kg, 1000 mg/kg, 2000 mg/kg).
Administration frequency: once.
Death, morbidity, respiration, secretions, feces, and diet, drinking situation and so on were observed, and the changes in body weight of the rats during the administration period were recorded. The contents of detailed clinical observation included but were not limited to behavioral activity, skin, coat, eyes, ears, nose, abdomen, external genitalia, anus, extremities, feet, and respiration. The animals in each group were euthanized at the end of observation period, and all animals were dissected and subjected to gross observation.

In the case of `C=CC(=O)N1CCN(c2nc(=O)n(-c3c(C)ccnc3C(C)C)c3nc(-c4ccccc4C=C)c(Cl)cc23)[C@@H](C)C1` [Compound 3-2], the “anti-cell proliferation activity against KRAS G12C mutant type cells NCI-H358 (in words)” value (NCI-H358; 3D model test) is reported as “significant anti-cell proliferation activity”, the IC50 (NCI-H358; Homo sapiens, NCI-H358, 3D agarose colony formation, NBT staining) is reported as less than 50 nM and the “inhibition effect on the growth of subcutaneously transplanted tumors derived from pancreatic cancer MIA paca-2 cells in nude mice (in words)” value ([1]; 10 mg/kg QD×15 days) is reported as “significant inhibition effect”. For the same compound, the “Tumor inhibition rate (%)” value ([1]; MIA PaCa-2 xenograft, nude mice, 10 mg/kg oral gavage QD×15 days) was “+++ (“+++” represents a tumor inhibition rate of >80%)”, the “death or morbidity after single dose (in words)” value [2] was “No animals in each group were dead or close to death” and the MTD ([2]; both sexes, rat, in vivo, read-out: maximum tolerated dose (MTD)) was no less than 2000 mg/kg.
